Test results: patent EP0726257A1, “1-(Hetero)Arylvinyl-5H-2,3-benzodiazepine derivatives useful for the treatment of central nervous system disorders, and benzopyrylium intermediates for their preparation” (EGIS GYOGYSZERGYAR RT., priority 1995, dated 1996)
Like-named read-outs stand apart in the source and are kept apart here.

Legend:
[1] = molecular target: homophthalazine binding site; assay: Displacement of 3H-girisopam from the homophthalazine binding site in rat brain striatal membrane preparation; details: displacing 5 nM 3H-girisopam
Procedure: Ki values were calculated according to the following equation: Ki = IC50 :(1 +([L])/(KD)), [formula] wherein KD is the dissociation constant of the labelled ligand-receptor complex, [L] is the concentration of the labelled ligand and IC50 is the half maximal inhibitory concentration of the test compound.

[2] = tested on: spontaneous motor activity (SMA) in mice; assay: Behavioural effects according to Irwin (decrease in spontaneous motor activity); type: in vivo; design: key: ++ strong; + moderate; +- slight decrease in spon-taneous motor activity [SMA]
Procedure: (§1) The behavioural effects of 1-[2'-(substituted) vinyl]-5H-2,3-benzodiazepine derivatives according to the invention and of reference substances were measured according to the method of Irwin (Psychopharmacology, 13, 222 [1968]). The results and the acute toxicity data (dead/treated animals, shown in brackets) can be seen in the following Table II
(§2) From the above Table II it can be taken that the 1-[2'-(substituted) vinyl]-5H-2,3-benzodiazepine derivatives according to the invention considerably decrease the spontaneous motor activity (SMA) in mice after intraperitoneal or oral administration.

mice [3] = assay: Acute toxicity (dead/treated animals) in the Irwin test; type: in vivo
Procedure: as §1, §2

[4] = tested on: spontaneous motor activity of mice; assay: Inhibition of spontaneous motor activity according to Borsy et al.; type: in vivo
Procedure: (§3) The potential antipsychotic activity of 1-[2'-(substituted) vinyl]-5H-2,3-benzodiazepine derivatives according to the invention and of reference substances was tested according to the method of Puech et al. (Psychopharmacology, 75, 84, [1981] by measuring their inhibiting effect on the "climbing" reaction induced by 5,6,6a,7-tetra-(hydro)-6-(methyl)-4H-dibenzo[de,g]quinoline-10,11-di-(ol){apomorphine}. The results have been expressed as ED50 values. Since the inhibition of the spontaneous motor activity (SMA) is an important characteristic of the antipsychotic drugs, the ED50 values of a number of compounds were determined according to the method of Borsy et al. (Arch. Int. Pharmacodyn., 124, 1, 196).
The effect of the 1-[2'-(substituted) vinyl]-5H-2,3-benzodiazepine derivatives according to the invention on the spontaneous motor activity was tested according to the method of Borsy et al. Groups consisting of 3 mice were treated orally with different doses of the compounds to be tested. Then the animals were placed into a 10-channel Dews system equipment, wherein the number of interruptions of infrared beam within 30 minutes was counted. […]

[5] = tested on: "climbing" reaction induced by 5,6,6a,7-tetra-(hydro)-6-(methyl)-4H-dibenzo[de,g]quinoline-10,11-di-(ol){apomorphine}; assay: Inhibition of apomorphine-induced climbing according to Puech et al.; type: in vivo
Procedure: as §3

Catalepsy in mice = assay: Cataleptic effect in mice (Schlichtegroll); type: in vivo; details: p.o.
Procedure: (§4) The cataleptic effect of the compounds was measured both in mice (Schlichtegroll: Arzneim. Forsch., 8, 489, [1958]) and in rats (Morpurgo: Arch. Int. Pharmacodyn., 137, 87, [1962]).

Catalepsy in rats = assay: Cataleptic effect in rats (Morpurgo); type: in vivo; details: p.o.
Procedure: as §4

rats [6] = assay: Lick-conflict test (Vogel et al.), anxiolytic activity; type: in vivo; details: Rattus norvegicus, po, read-out: Minimal effective dose [MED] Lick conflict
Excerpt: (§5) The anxiolytic activity was studied in rats according to the "lick-conflict" test elaborated by Vogel et al. (Psychopharmacology, 21, 1, [1971] and the elevated plus-maze test described by Pellow (Pellow, J.: Neurosci. Meth. 14, 149, [1985]). The antiaggressive effect was investigated in mice using the "fighting behaviour" method of Tedeschi (J. Pharm. Exp. Ther., 125, 28, [1959]). The minimal effective dose (MED) values and the ED50 values obtained are shown in the following Table V.

rats [7] = assay: Elevated plus-maze test (Pellow), anxiolytic activity; type: in vivo; details: Rattus norvegicus
Excerpt: as §5
The anxiolytic activity of these compounds was investigated in the elevated plus maze test. Male rats belonging to the Sprague Dawley strain and weighing 220 to 260 g were used as test animals. The test was carried out with the aid of a wooden plus-shaped maze elevated to a height of 50 cm and containing two enclosed and two open arms (50 cm long and 15 cm wide). After 60 minutes pretreatment the animals were placed into the maze and observed for 5 minutes. The drug effect was expressed as percent increase of the time spent on the open arms and number of open arm entries. The minimum effective dose (MED) which caused a significant increase of the time spent on the open arms was calculated for every substance [Pelow, S., Chopin, P., File, S.E., Briley, M.: J. Neurosci. Methods 14, 149 to 167 [1985]).

mice [8] = assay: Fighting behaviour method of Tedeschi, antiaggressive effect; type: in vivo; details: Mus musculus, po, read-out: ED50 Fighting behaviour
Excerpt: as §5

[9] = Mus musculus, po; read-out: Spontaneous motor activity SMA ED50
[10] = po; read-out: {apomorphine} Climbing ED50
[11] = ip, rats, read-out: Minimal effective dose [MED] Elevated + Maze
[12] = Mus musculus, po, 0.5 h; p.o., mice, interruptions of infrared beam within 30 minutes; read-out: ID50 (the source's name)
[13] = po, 1 h, p.o., elevated plus maze, Sprague Dawley rats, 60 minutes pretreatment, significant increase of time spent on open arms, read-out: Minimum effective dose
[14] = Mus musculus, po, read-out: Spontaneous motor activity SMA ED50
[15] = ip, read-out: Minimal effective dose [MED] Elevated + Maze
[16] = po, read-out: {apomorphine} Climbing ED50

Compound	Ki [1]	Behaviour ([2]; 300 mg/kg i.p.)	Behaviour ([2]; 1000 mg/kg p.o.)	acute toxicity (dead/treated animals) (mice [3]; 300 mg/kg i.p.)	acute toxicity (dead/treated animals) (mice [3]; 1000 mg/kg p.o.)	Catalepsy in mice Minimal effective dose [MED] (Catalepsy in mice)	Catalepsy in rats Minimal effective dose [MED] (Catalepsy in rats)	minimal effective dose (rats [6]; rats)	other results
COc1ccc(C=CC2=NN=C(C)Cc3cc(OC)c(OC)cc32)cc1OC [Example 3, 1-[3',4'-Di-(methoxy)-styryl]-4-[methyl]-7,8-di-[methoxy]-5H-2,3-benzodiazepine]	11 nM	+ +	+ +	5/6	5/6	100 mg/kg	>100 mg/kg	0.1 mg/kg	ED50 [4, 9]: 8.2 mg/kg; ED50 [5, 10]: 6.7 mg/kg
COc1ccc(C=CC2=NN=C(C)Cc3cc(OC)c(OC)cc32)c(OC)c1 [Example 5, 1-[2',4'-Di-(methoxy)-styryl)-4-[methyl]-7,8-di-[methoxy]-5H-2,3-benzodiazepine]	18 nM	+ +	+ +	0/5	0/5	–	–	–	minimal effective dose (rats [7]; [11]): 1.25 mg/kg; ED50 (mice [8]; mice): 15 mg/kg
COc1cc2c(cc1OC)C(C=Cc1cc(OC)c(OC)c(OC)c1)=NN=C(C)C2 [Example 6]	11 nM	+	+	0/6	0/6	>100 mg/kg	>100 mg/kg	1 mg/kg	ED50 [4, 9]: 9.3 mg/kg; ED50 [5, 10]: 15 mg/kg
COc1cc2c(cc1OC)C(C=Cc1ccccc1F)=NN=C(C)C2 [Example 10]	9 nM	+	+	0/6	0/6	>100 mg/kg	>100 mg/kg	3 mg/kg	–
COc1cc2c(cc1OC)C(C=Cc1ccc(C#N)cc1)=NN=C(C)C2 [Example 57]	18 nM	–	–	–	–	>100 mg/kg	>100 mg/kg	1 mg/kg	–
COc1cc2c(cc1OC)C(C=Cc1cccs1)=NN=C(C)C2 [Example 70]	13 nM	+ +	+	2/6	0/6	>100 mg/kg	>100 mg/kg	0.3 mg/kg	–
COc1cc2c(cc1OC)C(C=Cc1ccc(N)cc1)=NN=C(C)C2 [Example 73, 1-[4'-(Amino)-styryl]-4-[methyl]-7,8-di-[methoxy]-5H-2,3-benzodiazepine]	11 nM	–	–	–	–	–	–	–	ED50 [5, 10]: 1.8 mg/kg; minimal effective dose (rats [7]; [11]): 2.5 mg/kg; ED50 (mice [8]; mice): 6.4 mg/kg
COc1cc2c(cc1OC)C(C=Cc1ccc(NC(C)=O)cc1)=NN=C(C)C2 [Example 84, 1-[4'-(Acetylamino)-styryl]-4-[methyl]-7,8-di-[methoxy]-5H-2,3-benzodiazepine]	5 nM	+ +	+ +	0/5	1/5	–	–	–	ED50 [5, 10]: 11 mg/kg
CC1=NN=C(C=Cc2ccc(F)cc2)c2cc3c(cc2C1)OCO3 [Example 86, 1-[4'-(Fluoro)-styryl]-4-[methyl]-7,8-[methylenedioxy]-5H-2,3-benzodiazepine]	–	–	–	–	–	–	–	–	ED50 [4, 12]: > 100 mg/kg; minimal effective dose (rats [7]; [13]): 0.003 mg/kg
CC1=NN=C(C=Cc2ccc(C(F)(F)F)cc2)c2cc3c(cc2C1)OCO3 [Example 87, 1-[4'-(Trifluoromethyl)-styryl]-4-[methyl]-7,8-[methylenedioxy]-5H-2,3-benzodiazepine]	–	–	–	–	–	–	–	–	ED50 [4, 12]: > 100 mg/kg; minimal effective dose (rats [7]; [13]): 0.1 mg/kg
CC1=NN=C(C=Cc2ccccc2F)c2cc3c(cc2C1)OCO3 [Example 90, 1-[2'-(Fluoro)-styryl)-4-[methyl]-7,8-[methylenedioxy]-5H-2,3-benzodiazepine]	–	–	–	–	–	–	–	–	minimal effective dose (rats [7]; [13]): 0.3 mg/kg
CC1Cc2cc3c(cc2C(C=Cc2ccc(F)cc2)=NN1)OCO3 (stereo not shown) [Example 92, 1-[4'-(Fluoro)-styryl]-4-[methyl]-7,8-[methylenedioxy]-3,4-di-[hydro]-5H-2,3-benzodiazepine]	–	–	–	–	–	–	–	–	minimal effective dose (rats [7]; [13]): 1 mg/kg
CNC1=Nc2ccc(Cl)cc2C(c2ccccc2)=[N+]([O-])C1 [chlorodiazepoxide, 7-(chloro)-2-(methylamino)-5-(phenyl)-3H-1,4-benzodiazepine-4-(oxide), reference compound]	–	–	–	–	–	–	–	–	ED50 [4, 14]: 56 mg/kg; {apomorphine} Climbing ED50 ([5]; p.o.): inactive; minimal effective dose (rats [6]): 5 mg/kg; minimal effective dose (rats [7]; [15]): 2.5 mg/kg; ED50 (mice [8]): 9.2 mg/kg
COc1cc2c(cc1OC)C(c1cccc(Cl)c1)=NN=C(C)C2 [girisopam, 1-(3'-〈chloro〉-phenyl)-4-(methyl)-7,8-di-(methoxy)-5H-2,3-benzodiazepine, reference compound]	40 nM	+-	–	0/6	–	–	–	–	ED50 [4, 14]: 10 mg/kg; ED50 [5, 16]: 12 mg/kg; minimal effective dose (rats [6]): 10 mg/kg; minimal effective dose (rats [7]; [15]): 12.5 mg/kg; ED50 (mice [8]): 7.7 mg/kg
COc1cc2c(cc1OC)C(c1ccc(N)cc1)=NN=C(C)C2 [nerisopam, 1-(4'-〈amino〉-phenyl)-4-(methyl)-7,8-di-(methoxy)-5H-2,3-benzodiazepine, reference compound]	–	+ +	–	5/6	–	40 mg/kg	60 mg/kg	–	ED50 [4, 14]: 2.5 mg/kg; ED50 [5, 16]: 0.9 mg/kg; minimal effective dose (rats [6]): 0.3 mg/kg; minimal effective dose (rats [7]; [15]): 0.3 mg/kg; ED50 (mice [8]): 4 mg/kg
